# Source: ChEMBL document CHEMBL1201862, “PubChem BioAssay data set” (2004)
# The source made the active and inactive calls. No stated cut-off is given here; in the data, actives have a measured IC50 and inactives only a lower limit.
# Target: Envelope glycoprotein gp160 (Human immunodeficiency virus 1, UniProt Q6QLK5)
# Assay: cell-free HIV fusion peptide-binding blockers – biochemical, uHTS, fluorescence dequenching, […] (AID 1986)
# Envelope glycoprotein gp160, sequence (Q6QLK5 whole entry, the tested form may be a part): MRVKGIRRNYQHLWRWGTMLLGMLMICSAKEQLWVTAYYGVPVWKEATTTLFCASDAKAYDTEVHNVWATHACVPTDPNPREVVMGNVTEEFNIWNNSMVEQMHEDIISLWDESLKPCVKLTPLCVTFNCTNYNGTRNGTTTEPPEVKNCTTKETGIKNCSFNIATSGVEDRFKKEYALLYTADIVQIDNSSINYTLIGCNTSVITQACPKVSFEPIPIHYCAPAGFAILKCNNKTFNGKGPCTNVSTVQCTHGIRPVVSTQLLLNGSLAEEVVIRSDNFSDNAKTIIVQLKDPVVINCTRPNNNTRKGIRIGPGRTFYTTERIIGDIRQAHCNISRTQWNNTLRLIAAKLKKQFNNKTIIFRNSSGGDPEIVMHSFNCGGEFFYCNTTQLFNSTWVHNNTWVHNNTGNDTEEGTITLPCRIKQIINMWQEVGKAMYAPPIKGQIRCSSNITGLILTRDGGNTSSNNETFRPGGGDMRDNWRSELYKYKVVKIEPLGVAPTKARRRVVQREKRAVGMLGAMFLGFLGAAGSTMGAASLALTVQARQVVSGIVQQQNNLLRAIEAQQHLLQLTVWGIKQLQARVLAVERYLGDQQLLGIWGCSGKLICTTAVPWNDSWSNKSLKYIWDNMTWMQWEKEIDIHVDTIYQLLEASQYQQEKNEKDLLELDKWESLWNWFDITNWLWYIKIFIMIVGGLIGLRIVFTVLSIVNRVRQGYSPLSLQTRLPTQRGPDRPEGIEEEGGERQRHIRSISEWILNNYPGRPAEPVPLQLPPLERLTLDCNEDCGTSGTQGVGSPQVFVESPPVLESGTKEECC
row,Compound,IC50
1,C=CC#CC[N+]1(CC#Cc2ccccc2)CCOCC1,22.5 µM (active)
2,Cc1ccc(-c2nc(SCC(=O)Nc3ccccc3OC(F)F)c3c(C)c(C(=O)O)sc3n2)cc1,15.1 µM (active)
3,O=C(O)c1cccc(N/N=C/c2cc(Br)cc(Br)c2O)c1,17.1 µM (active)
